This note sets out measurements from US20210130339A1, “COMPOUNDS” (GLAXOSMITHKLINE INTELLECTUAL PROPERTY DEVELOPMENT LIMITED, priority 2017, published 2021).

Values joined by “and” are separate entries in the source; they are usually repeats but may differ in a detail not shown here. Identical values can stand only once.

Test [1] deals with T1, recombinant full length LRRK2 (Homo sapiens, UniProt Q5S007).
T1 construct: A BacMam virus expressing full length recombinant LRRK2 was purchased from Invitrogen; host or cells: SH-SY5Y human neuroblastoma cells transduced with BacMam LRRK2 virus (MOI 50)
In words: Recombinant cellular LRRK2 AlphaScreen assay. The format is cell-based. As to conditions: LRRK2 Ser935 phosphorylation, SH-SY5Y cells over-expressing recombinant full length LRRK2; read-out: pIC50 in the recombinant cellular LRRK2 AlphaScreen assay (converted). The method, boiled down:
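SH-SY5Y neuroblastoma cells transduced with BacMam full-length human LRRK2 (MOI 50, 24 h) were treated with compounds for 60 min at 37 °C, top final 10 µM. Lysates probed by AlphaScreen for pSer935 versus total LRRK2; sigmoidal dose-response fit.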
A general note: In Alpha technology, singlet oxygen from a donor bead excites a nearby acceptor bead.

Test [2] has as its target T2, Full length G2019 human LRRK2 (Homo sapiens, UniProt Q5S007).
T2 construct: purified recombinant Full length Flag-LRRK2 in assay buffer; made in house; host or cells: HEK293 6E cells transduced with BacMam virus (virus generated in Sf9 cells)
In words: Full length G2019 human LRRK2 Inhibition Mass Spectrometry assay. The format is biochemical. As to conditions: LRRKtide substrate, RapidFire mass spectrometry; read-out: pIC50 in the Full length G2019 human LRRK2 Inhibition Mass Spectrometry assay (converted). As to the method:
a. Full Length G2019 Human LRRK2 Inhibition Mass Spectrometry Assay
This assay for Leucine Rich Repeat Kinase 2 (LRRK2) inhibition is based on the direct measurement of the peptide ‘LRRKtide’ (LRRKtide: RLGRDKYKT*LRQIRQ and “*” refers to the site of phosphorylation.) and phosphorylated ‘LRRKtide’ using a high throughput RapidFire mass spectrometry assay. Inhibitors are compounds that reduce the conversion of LRRKtide to phospho-LRRKtide.
HEK293 6E cells were incubated in a 37° C. incubator with a humidified atmosphere of 5% CO2 on an orbital shaker rotating at 110 rpm. On the day of transduction, the cell viability was higher than 98% and the cell density was in the range of 1×10^6˜1.5×10^6 cells/ml. HEK293 6E cells were centrifuged at 1,000 rpm for 10 min, and then the cells were resuspended in fresh Freestyle 293 expression medium (Invitrogen:12338) with 0.1% F-68 (Invitrogen:24040-032) but without antibiotics (G418) at density of 1×10^6 cells/ml. BacMam virus with Flag-hu LRRK2 (genotypically normal) gene was centrifuged at 40,000 g for 2 hours, then resuspended in fresh Freestyle 293 expression medium. The resuspended virus was added into the cells in at MOI of 10. The cells were incubated in a 37° C. incubator with a humidified atmosphere of 5% CO2 in air on an orbital shaker rotating at 110 rpm. Cultures were harvested at approximately 48 hours post-transduction by centrifugation at 4,000 rpm for 20 min and pellets were frozen for purification.
The suspended cells were lysed by sonication on ice for 30 min (2 secs on/4 sec off, 20% amplitude), and centrifuged at 10,000 rpm for 30 minutes at 4° C. The supernatant was incubated with 1 mL per litre of cell culture of anti-Flag magnetic beads (Sigma-Aldrich: M8823) at 4° C. for 3 hours, then the beads were washed by 5 mL (5 column volume) binding buffer (50 mM Tris pH7.5@ 4C, 500 mM NaCl, 0.5 mM EDTA, 0.1% TritonX-100, 10% glycerol, freshly add 2 mM DTT) for three times. The Flag tagged LRRK2 proteins were eluted by Elution buffer (50 mM Tris pH7.5@ 4C, 500 mM NaCl, 0.5 mM EDTA, 0.1% TritonX-100, 10% glycerol, freshly add 2 mM DTT, 250 ug/ml Flag peptide (Sigma-Aldrich:F3290)) at 4° C. for 2 hours. Flag peptide was removed by Zeba Spin Desalting Columns, 7K MWCO (Thermo-Fisher: 89893) and the buffer of eluted LRRK2 proteins was exchanged into Storage Buffer (50 mM Tris pH7.5@4C, 150 mM NaCl, 0.5 mM EDTA, 0.02% Triton X-100, 2 mM DTT and 50% Glycerol) using Amicon Ultra Centrifugal Filter Units (100 kD) (Merck: UFC910096). Fractions containing LRRK2 proteins were pooled, aliquoted and stored at −80° C. Protein concentration was determined by Bradford protein assay, and protein purity was analyzed by NuPAG Novex 4-12% Bis-Tris Protein Gels (Invitrogen: NP0322BOX).
• 1) A 10 mM test compound was dissolved in 100% DMSO and serially diluted 1 in 4. 100 nL of this dilution series was then added to a 384 well, v bottom polypropylene plate, excluding columns 6 and 18. 100 nL of DMSO was added to columns 6 and 18 as controls wells. Assay dilution gave a top final assay concentration of test compound of 100 μM • 2) 50 μl of 1% formic acid in laboratory grade water was added to column 18 using a multidrop combi dispenser to act as a pre stopped assay control. • 3) 5 μl of ‘enzyme solution’ containing 50 nM of purified recombinant Full length Flag-LRRK2 in assay buffer (50 mM Hepes (pH 7.2), 10 mM MgCl2, 150 mM NaCl, 5% glycerol, 0.0025% triton X-100 and 1 mM DTT) was added to all wells using a multidrop combi dispenser, giving a final assay concentration of 25 nM LRRK2 enzyme. […] Test plates were then incubated for 30 minutes at room temperature. • 4) 5 μl ‘substrate solution’ containing 50 uM LRRKtide peptide substrate and 4 mM ATP was added to all wells of the plate using a multidrop combi dispenser giving a final assay concentration of 25 uM LRRKtide and 2 mM ATP. Test plates were then incubated for 1 hour at room temperature. […]

T2 sequence (Q5S007 with tags, fused parts or gaps R50H): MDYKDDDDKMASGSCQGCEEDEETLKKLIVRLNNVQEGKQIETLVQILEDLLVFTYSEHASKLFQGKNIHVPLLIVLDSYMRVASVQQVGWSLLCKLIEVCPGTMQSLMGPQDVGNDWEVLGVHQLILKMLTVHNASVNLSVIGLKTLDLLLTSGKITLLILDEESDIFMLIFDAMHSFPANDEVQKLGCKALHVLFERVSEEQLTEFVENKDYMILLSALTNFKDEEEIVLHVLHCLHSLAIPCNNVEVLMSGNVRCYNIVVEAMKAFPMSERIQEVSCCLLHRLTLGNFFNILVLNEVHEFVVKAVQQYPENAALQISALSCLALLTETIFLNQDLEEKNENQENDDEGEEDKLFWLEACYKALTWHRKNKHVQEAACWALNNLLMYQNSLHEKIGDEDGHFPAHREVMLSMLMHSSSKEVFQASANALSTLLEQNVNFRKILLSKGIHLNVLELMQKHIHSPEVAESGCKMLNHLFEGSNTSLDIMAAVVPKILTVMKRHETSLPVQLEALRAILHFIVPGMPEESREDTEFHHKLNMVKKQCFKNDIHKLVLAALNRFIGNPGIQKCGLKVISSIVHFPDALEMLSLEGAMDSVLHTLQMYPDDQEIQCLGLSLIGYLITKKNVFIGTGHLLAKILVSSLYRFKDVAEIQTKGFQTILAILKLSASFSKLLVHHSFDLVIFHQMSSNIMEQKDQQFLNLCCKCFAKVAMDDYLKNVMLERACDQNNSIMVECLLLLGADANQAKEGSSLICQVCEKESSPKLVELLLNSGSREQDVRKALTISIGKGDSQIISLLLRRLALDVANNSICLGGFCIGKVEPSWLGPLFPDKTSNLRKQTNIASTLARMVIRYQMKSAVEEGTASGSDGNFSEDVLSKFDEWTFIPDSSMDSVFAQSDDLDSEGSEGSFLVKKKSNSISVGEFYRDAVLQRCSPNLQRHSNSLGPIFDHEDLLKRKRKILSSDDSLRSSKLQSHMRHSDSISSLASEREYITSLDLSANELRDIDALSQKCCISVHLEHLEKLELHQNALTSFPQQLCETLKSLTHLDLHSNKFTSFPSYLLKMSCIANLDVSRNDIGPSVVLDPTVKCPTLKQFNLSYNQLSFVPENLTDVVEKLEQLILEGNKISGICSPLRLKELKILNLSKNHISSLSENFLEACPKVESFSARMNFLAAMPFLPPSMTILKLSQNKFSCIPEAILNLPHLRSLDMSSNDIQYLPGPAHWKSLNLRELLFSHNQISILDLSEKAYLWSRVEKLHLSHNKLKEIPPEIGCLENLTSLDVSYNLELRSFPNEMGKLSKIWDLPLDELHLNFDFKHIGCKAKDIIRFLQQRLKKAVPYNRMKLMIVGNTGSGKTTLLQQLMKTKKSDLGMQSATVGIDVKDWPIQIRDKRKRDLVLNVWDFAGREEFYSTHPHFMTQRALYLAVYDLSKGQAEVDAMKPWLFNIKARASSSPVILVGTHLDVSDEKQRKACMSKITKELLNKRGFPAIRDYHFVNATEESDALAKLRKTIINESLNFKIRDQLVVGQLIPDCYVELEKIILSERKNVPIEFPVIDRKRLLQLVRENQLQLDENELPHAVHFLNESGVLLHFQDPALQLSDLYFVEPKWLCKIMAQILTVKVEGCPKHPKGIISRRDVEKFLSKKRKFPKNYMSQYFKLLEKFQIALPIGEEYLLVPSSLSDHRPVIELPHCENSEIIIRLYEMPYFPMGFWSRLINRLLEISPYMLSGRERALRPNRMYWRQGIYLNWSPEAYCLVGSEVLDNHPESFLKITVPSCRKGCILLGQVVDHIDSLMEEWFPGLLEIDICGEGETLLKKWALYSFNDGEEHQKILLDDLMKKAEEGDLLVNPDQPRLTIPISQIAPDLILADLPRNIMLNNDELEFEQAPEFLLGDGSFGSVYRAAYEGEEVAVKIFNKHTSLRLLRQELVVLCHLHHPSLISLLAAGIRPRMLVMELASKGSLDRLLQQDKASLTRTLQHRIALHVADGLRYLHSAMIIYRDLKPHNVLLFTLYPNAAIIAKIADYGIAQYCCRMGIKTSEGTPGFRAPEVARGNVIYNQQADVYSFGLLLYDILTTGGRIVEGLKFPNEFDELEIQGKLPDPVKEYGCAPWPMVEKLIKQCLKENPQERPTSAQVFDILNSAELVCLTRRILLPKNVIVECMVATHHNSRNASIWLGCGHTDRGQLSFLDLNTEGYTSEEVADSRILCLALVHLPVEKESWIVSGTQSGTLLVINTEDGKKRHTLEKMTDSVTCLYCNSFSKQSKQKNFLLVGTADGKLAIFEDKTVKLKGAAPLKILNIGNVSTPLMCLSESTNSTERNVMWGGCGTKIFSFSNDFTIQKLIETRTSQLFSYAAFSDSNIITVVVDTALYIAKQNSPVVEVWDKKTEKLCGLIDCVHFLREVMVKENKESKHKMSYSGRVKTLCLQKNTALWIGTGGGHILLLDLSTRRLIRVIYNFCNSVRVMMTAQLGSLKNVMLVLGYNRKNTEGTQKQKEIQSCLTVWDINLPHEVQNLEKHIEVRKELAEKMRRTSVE
T1 sequence (Q5S007 whole entry): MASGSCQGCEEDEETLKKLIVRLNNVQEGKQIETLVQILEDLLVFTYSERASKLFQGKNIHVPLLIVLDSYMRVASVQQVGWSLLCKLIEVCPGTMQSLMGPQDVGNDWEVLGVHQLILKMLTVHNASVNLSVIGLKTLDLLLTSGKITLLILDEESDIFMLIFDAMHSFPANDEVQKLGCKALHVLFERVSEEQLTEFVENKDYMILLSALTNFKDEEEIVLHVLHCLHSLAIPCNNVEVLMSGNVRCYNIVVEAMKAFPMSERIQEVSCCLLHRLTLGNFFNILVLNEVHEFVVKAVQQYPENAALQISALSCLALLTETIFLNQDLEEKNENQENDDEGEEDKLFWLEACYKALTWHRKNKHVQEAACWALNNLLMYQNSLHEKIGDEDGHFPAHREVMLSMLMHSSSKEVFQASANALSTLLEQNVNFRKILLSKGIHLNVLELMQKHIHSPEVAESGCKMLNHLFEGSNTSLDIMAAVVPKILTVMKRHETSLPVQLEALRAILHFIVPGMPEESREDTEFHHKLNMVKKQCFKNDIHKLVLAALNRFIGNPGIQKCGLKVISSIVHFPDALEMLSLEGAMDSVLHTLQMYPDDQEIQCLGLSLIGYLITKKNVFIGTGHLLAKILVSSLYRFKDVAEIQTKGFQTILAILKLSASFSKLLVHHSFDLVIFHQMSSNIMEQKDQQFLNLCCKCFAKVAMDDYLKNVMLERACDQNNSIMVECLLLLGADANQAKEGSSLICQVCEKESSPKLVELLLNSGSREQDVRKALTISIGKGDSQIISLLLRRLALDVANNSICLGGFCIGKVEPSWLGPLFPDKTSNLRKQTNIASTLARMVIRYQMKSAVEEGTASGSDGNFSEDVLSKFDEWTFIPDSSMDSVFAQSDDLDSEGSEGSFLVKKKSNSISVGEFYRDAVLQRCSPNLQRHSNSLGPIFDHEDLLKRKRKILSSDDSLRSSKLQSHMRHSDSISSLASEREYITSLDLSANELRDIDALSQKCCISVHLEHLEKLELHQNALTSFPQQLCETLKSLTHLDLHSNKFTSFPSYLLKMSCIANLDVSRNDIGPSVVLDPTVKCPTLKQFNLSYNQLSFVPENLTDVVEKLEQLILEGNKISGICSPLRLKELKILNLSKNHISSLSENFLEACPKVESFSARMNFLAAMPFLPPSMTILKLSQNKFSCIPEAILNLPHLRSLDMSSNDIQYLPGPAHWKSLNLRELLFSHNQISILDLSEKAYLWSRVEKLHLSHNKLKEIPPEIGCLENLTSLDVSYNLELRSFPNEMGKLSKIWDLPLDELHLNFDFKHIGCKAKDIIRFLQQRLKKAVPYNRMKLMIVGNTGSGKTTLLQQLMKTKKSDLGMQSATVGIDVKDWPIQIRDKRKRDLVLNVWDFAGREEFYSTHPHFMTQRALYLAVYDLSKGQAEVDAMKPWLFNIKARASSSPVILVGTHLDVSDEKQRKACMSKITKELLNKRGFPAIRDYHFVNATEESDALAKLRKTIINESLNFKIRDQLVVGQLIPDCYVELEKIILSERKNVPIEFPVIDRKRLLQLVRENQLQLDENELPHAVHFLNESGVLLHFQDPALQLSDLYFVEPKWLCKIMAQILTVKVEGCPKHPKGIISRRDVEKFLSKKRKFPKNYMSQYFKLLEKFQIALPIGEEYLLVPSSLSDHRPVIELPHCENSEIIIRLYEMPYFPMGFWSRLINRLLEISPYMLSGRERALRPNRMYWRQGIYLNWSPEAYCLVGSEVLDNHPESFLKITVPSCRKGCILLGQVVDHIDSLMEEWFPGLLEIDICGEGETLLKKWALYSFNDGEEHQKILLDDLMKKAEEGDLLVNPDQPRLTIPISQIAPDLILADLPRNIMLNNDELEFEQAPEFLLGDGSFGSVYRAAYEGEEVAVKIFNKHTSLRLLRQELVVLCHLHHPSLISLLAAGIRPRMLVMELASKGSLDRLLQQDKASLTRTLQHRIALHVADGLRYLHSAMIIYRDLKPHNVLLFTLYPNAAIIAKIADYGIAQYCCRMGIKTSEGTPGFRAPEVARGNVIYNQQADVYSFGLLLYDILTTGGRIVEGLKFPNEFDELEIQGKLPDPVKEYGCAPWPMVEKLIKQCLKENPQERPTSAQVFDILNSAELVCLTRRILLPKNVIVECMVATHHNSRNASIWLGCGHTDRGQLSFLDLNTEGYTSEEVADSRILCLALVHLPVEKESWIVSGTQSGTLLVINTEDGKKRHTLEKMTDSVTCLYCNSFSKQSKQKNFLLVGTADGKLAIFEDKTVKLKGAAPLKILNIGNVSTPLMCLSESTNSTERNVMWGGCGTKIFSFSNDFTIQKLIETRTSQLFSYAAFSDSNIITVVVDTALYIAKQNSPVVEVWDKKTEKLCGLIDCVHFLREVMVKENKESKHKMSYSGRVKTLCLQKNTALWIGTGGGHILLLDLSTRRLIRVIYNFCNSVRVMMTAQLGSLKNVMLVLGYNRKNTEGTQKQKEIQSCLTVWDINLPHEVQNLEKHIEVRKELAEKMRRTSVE

On to `Cc1nc(N2CCOC(C(C)O)C2)cc(-n2ncc3cc(C)c(C4CCN(C5CCOC5)CC4)cc32)n1` (single isomer, unassigned) [Example E135, 1-(4-(2-methyl-6-(5-methyl-6-(1-(tetrahydrofuran-3-yl)piperidin-4-yl)-1H-indazol-1-yl)pyrimidin-4-yl)morpholin-2-yl)ethanol], for which the IC50 in test [1] and in test [2] was ≤ 100 nM in each case.
On to `Cc1nc(N2CCOC(C(C)O)C2)cc(-n2ncc3cc(C)c(C4CCN(C5CCOC5)CC4)cc32)n1` (single isomer, unassigned) [Example E136, 1-(4-(2-methyl-6-(5-methyl-6-(1-(tetrahydrofuran-3-yl)piperidin-4-yl)-1H-indazol-1-yl)pyrimidin-4-yl)morpholin-2-yl)ethanol], for which the IC50 is ≤ 1000 nM in test [1] and ≤ 100 nM in test [2].
As for `Cc1nc(N2CCOC(C(C)O)C2)cc(-n2ncc3cc(C)c(C4CCN(C5CCOC5)CC4)cc32)n1` (single isomer, unassigned) [Example E137, 1-(4-(2-methyl-6-(5-methyl-6-(1-(tetrahydrofuran-3-yl)piperidin-4-yl)-1H-indazol-1-yl)pyrimidin-4-yl)morpholin-2-yl)ethanol], the IC50 in test [1] was ≤ 1000 nM; in test [2], ≤ 100 nM.
Turning to `Cc1nc(N2CCOC(C(C)O)C2)cc(-n2ncc3cc(C)c(C4CCN(C5CCOC5)CC4)cc32)n1` (single isomer, unassigned) [Example E138, 1-(4-(2-methyl-6-(5-methyl-6-(1-(tetrahydrofuran-3-yl)piperidin-4-yl)-1H-indazol-1-yl)pyrimidin-4-yl)morpholin-2-yl)ethanol], the IC50 in test [1] is ≤ 100 nM and 63.1 nM; in test [2] it was ≤ 100 nM and 25.1 nM.
As to `Cc1nc(N2CCOC(C(C)O)C2)cc(-n2ncc3cc(C)c(C4CCN(C5CCOC5)CC4)cc32)n1` (single isomer, unassigned) [Example E139, 1-(4-(2-methyl-6-(5-methyl-6-(1-(tetrahydrofuran-3-yl)piperidin-4-yl)-1H-indazol-1-yl)pyrimidin-4-yl)morpholin-2-yl)ethanol], the IC50 in test [1] and in test [2] was ≤ 1000 nM each time.
On to `Cc1nc(N2CCOC(C(C)O)C2)cc(-n2ncc3cc(C)c(C4CCN(C5CCOC5)CC4)cc32)n1` (single isomer, unassigned) [Example E140, 1-(4-(2-methyl-6-(5-methyl-6-(1-(tetrahydrofuran-3-yl)piperidin-4-yl)-1H-indazol-1-yl)pyrimidin-4-yl)morpholin-2-yl)ethanol], for which the figures for the IC50 in test [1] and in test [2] were ≤ 1000 nM and ≤ 100 nM, respectively.
On to `Cc1nc(N2CCOC(C(C)O)C2)cc(-n2ncc3cc(C)c(C4CCN(C5CCOC5)CC4)cc32)n1` (single isomer, unassigned) [Example E141, 1-(4-(2-methyl-6-(5-methyl-6-(1-(tetrahydrofuran-3-yl)piperidin-4-yl)-1H-indazol-1-yl)pyrimidin-4-yl)morpholin-2-yl)ethanol], for which the IC50 in test [1] was ≤ 1000 nM; in test [2], ≤ 100 nM.
The matching figures for `Cc1nc(N2CCOC(C(C)O)C2)cc(-n2ncc3cc(C)c(C4CCN(C5CCOC5)CC4)cc32)n1` (single isomer, unassigned) [Example E142, 1-(4-(2-methyl-6-(5-methyl-6-(1-(tetrahydrofuran-3-yl)piperidin-4-yl)-1H-indazol-1-yl)pyrimidin-4-yl)morpholin-2-yl)ethanol]: ≤ 1000 nM and ≤ 1000 nM.
On to `Cc1nc(N2CCO[C@H](CO)C2)cc(-n2ncc3cc(C)c(C4CCN(C5COCC5F)CC4)cc32)n1` (single isomer, unassigned) [Example E149], for which the IC50 in test [1] was ≤ 1000 nM; in test [2], ≤ 100 nM.
Consider `Cc1nc(N2CCO[C@H](CO)C2)cc(-n2ncc3cc(C)c(C4CCN(C5COCC5F)CC4)cc32)n1` (single isomer, unassigned) [Example E150], for which the IC50 in test [1] was ≤ 100 nM; in test [2] it was ≤ 1000 nM.
For `Cc1nc(N2CCO[C@H](CO)C2)cc(-n2ncc3cc(C)c(C4CCN(C5COCC5O)CC4)cc32)n1` (single isomer, unassigned) [Example E153], in that order: ≤ 100 nM and ≤ 100 nM.
On to `[2H]c1nn(-c2cc(N3CCO[C@@H](CO)C3)nc(C)n2)c2cc(C3CCN([C@@H]4CCOC4)CC3)c(C)cc12` [Example E94, ((R)-4-(6-(3-deuterium-5-methyl-6-(1-((R)-tetrahydrofuran-3-yl)piperidin-4-yl)-1H-indazol-1-yl)-2-methylpyrimidin-4-yl)morpholin-2-yl)methanol], for which the IC50 in test [1] was ≤ 1000 nM; in test [2] it was ≤ 100 nM.
For the compound `[2H]c1nn(-c2cc(N3CCO[C@@H](CO)C3)nc(C)n2)c2cc(C3CCN([C@H]4CCOC4)CC3)c(C)cc12` [Example E95, ((R)-4-(6-(3-deuterium-5-methyl-6-(1-((S)-tetrahydrofuran-3-yl)piperidin-4-yl)-1H-indazol-1-yl)-2-methylpyrimidin-4-yl)morpholin-2-yl)methanol], the IC50 in test [1] is ≤ 1000 nM; in test [2] it was ≤ 100 nM and 39.8 nM.
Regarding `Cc1nc(N2CCO[C@H](CO)C2)cc(-n2ncc3cc(C)c(C4CCN(C5COCC5C)CC4)cc32)n1` (stereo partly drawn) [Example E155, ((2S)-4-(2-methyl-6-(5-methyl-6-(1-(4-methyltetrahydrofuran-3-yl)piperidin-4-yl)-1H-indazol-1-yl)pyrimidin-4-yl)morpholin-2-yl)methanol], the IC50 in test [1] was ≤ 1000 nM; in test [2], ≤ 100 nM.
For `Cc1nc(N2CCOC(C)(CO)C2)cc(-n2ncc3cc(C)c(C4CCN([C@H]5CCOC5)CC4)cc32)n1` (stereo partly drawn) [Example E156, (2-methyl-4-(2-methyl-6-(5-methyl-6-(1-((S)-tetrahydrofuran-3-yl)piperidin-4-yl)-1H-indazol-1-yl)pyrimidin-4-yl)morpholin-2-yl)methanol], in that order: ≤ 1000 nM and ≤ 100 nM.
